Key:
Assay type in all cases: in vivo, Cryptotis parva
[1] = Analysis of SP in serum, gut and brain tissues following intraperitoneal injection of an emetic dose of SP; details: SP 50 mg/kg i.p.
Description: Different groups of shrews were injected with a 50 mg/kg emetic dose of SP (i.p.) and were sacrificed at 5 min, 15 min, and 30 min (n=5-6 animals per group) post injection. Blood serum as well as two different brain (frontal cortex and brain stem) and gut (duodenum and jejunum) tissue samples were collected for the determination of SP levels relative to a saline-treated shrew control group (n=6). The brain SP concentration was determined in all of the cited exposure times, whereas gut SP tissue levels were analyzed for the 0 min (control), 5 min and 15 min exposure periods Likewise, serum SP concentrations were determined at the 0 min, 5 min and 15 min exposure periods as well as in a 10 min SP-exposed shrew group.
To collect blood, shrews were rapidly euthanized with isoflurane (Vedco, St. Joseph, Mo.) one at a time. Then, each shrew was laid on its back and taped to a metal tray, and cut transversely under the diaphragm and along the sides towards the arms to allow the ribcage to be lifted away. The heart was then held with forceps, and a 0.5 cc syringe with 28 ga hypodermic needle was inserted into the left ventricle. Blood was pulled gently into the syringe directly from the ventricle until the descending aorta appeared clear (approximately 50 μl -100 μl total volume), and rapidly transferred to a non-heparinized tube for centrifugation and removal of red blood cells. Brain and gut tissue were rapidly dissected following blood collection and decapitation. Preliminary sample preparation procedures were carried out to optimize detection conditions.
Because proteases can be deactivated by heat (El-Salhy, 107 Upsala J. Med. Sci. 101-10 (2002)), at basic pH (Crawford & Kalmakoff, 24 J. Virol. 412-15 (1977)), and in the presence of EDTA (Wei & Bobek, 49 Antimicrob. Agents Chemother. 2336-42 (2005)), the entire intestine was immediately immersed in a 70° C. preheated, 5 ml solution of normal saline containing […] EDTA at pH8.0. After a 5 min exposure, each gut was thrice flushed and rinsed with 5 ml of the saline solution and then allowed to cool down naturally to room temperature. Then, each gut was dissected and the duodenum and jejunum samples were placed separately in test tubes containing 1 ml assay buffer. The dissected frontal cortex and brain stem samples were placed in different test tubes containing 0.5 ml assay buffer. Each sample was homogenized using a tissue tearor (Biospec) set at level 5 for 15sec. The homogenates were then centrifuged at 17,000×g for 15 min at 4° C. The supernatants were obtained and saved at −80° C. until used for the EIA detection of SP. Samples were analyzed for SP using the “Correlate-EIA” kit from Assay Designs using a microplate reader.
(§1) The data on the frequency of emesis and scratchings were analyzed by the Kruskal-Wallis (KW) nonparametric one-way analysis of variance (ANOVA) and post hoc analysis by Dunn's multiple comparisons test or Mann-Whitney test. A P value of <0.05 was necessary to attain statistical significance. The incidence of emesis (number of shrews vomiting) was analyzed by the Fisher's exact test to determine whether there were differences between groups. When appropriate, pairwise comparisons were also made by this method. Two-way analysis of variance using the Kruskal-Wallis or Fisher's exact tests were initially utilized to respectively analyze the dose-response results of GR73632 on emesis and scratching behaviors, and percentage of shrews vomiting in saporin- and corresponding saline-pretreated control shrews. […] For some emesis data, the two-tailed Mann-Whitney test was used. The SP tissue concentration data were analyzed by a one-way ANOVA followed by Dunnett's t test as post hoc analysis. Fos-IR was quantified by counting immunopositive nuclei within each hemisection containing the region of interest (ROI). The number of nuclei was averaged across sections with the ROI for each animal, and the group mean and standard error obtained.

Least Shrew = test: Dose response emesis and scratching studies with tachykinin receptor agonists; details: for increase in the frequency of vomiting vs vehicle control / increase in emesis frequency vs vehicle control: 30 min observation; for onset of first emesis after injection: i.p. agonist injection
Excerpt: The present protocols were based upon preliminary studies as well as published findings in the Least Shrew. Darmani, 2001a; Darmani et al., 69 Pharmacol. Biochem. Behay. 239-49 (2001b). On the test day, the shrews were allowed to acclimate to the test laboratory for at least one hour prior to experimentation. To habituate the animals to the test environment, each shrew was randomly selected and transferred to a 20 cm×18 cm×21 cm clean clear plastic cage and offered four mealworms (Tenebrio sp.) 30 min prior to experimentation. […]
as §1

NK1 receptor = test: Histological analysis of NK1 receptor immunotoxic lesions with SSP-saporin
Description: (§2) Immunohistochemistry was performed by blocking free-floating sections with 10% normal horse serum (NHS) and 3% hydrogen peroxide in PB with 0.3% Triton X-100 (TX) for 30 min After rinsing three times in PB, tissue was put in either: (1) rat anti-Substance P monoclonal antibody (Chemicon, 1:400); (2) sheep anti-Fos polyclonal (Chemicon, 1:600); or (3) rabbit anti-NK1 receptor polyclonal (Santa Cruz, 1:500), with 5% NHS and 0.3% TX, and incubated overnight at room temperature with gentle shaking. After rinsing three times in PB, the tissue was placed in biotinylated donkey anti-rat, anti-sheep, or anti-rabbit (respectively) IgG secondary antibody (Jackson Immuno, dilution 1:600). The secondary antibody was diluted in the same diluent described for the primary antibody, and the tissue incubated at room temperature with shaking for 75 min. After rinsing three times in PB, tissue was incubated for 60 min in horse radish peroxidase-conjugated avidin-biotin complex (Vector Labs Vectastain kit, diluted 1:2) in PB. Tissue was then rinsed twice in PB, then once in imidazole-acetate buffer (0.1 M, pH7.4), then reacted for 6 min in 0.0006% hydrogen peroxide with 2% nickel ammonium sulfate-enhanced diaminobenzidine (DAB, 0.05% in 0.1 M imidazole-acetate buffer).
To better localize the induction of emesis by GR73632, dose-response curves were generated for shrews pretreated either with the NK1 receptor immunotoxin SSP-saporin or saline and challenged four days later with varying doses of GR73632 (0, 1, 2.5, or 5 mg/kg, i.p., n=8-10 per group). Briefly, thirty shrews were injected i.p. with 1.2 mg/kg SSP-saporin in sterile saline, and thirty-five shrews were injected with sterile saline alone. In addition, two more shrews were injected with 1.2 mg/kg unconjugated saporin (saporin; ATS) and two more with 1.2 mg/kg of saporin conjugated to a nonspecific peptide sequence (Blank-saporin; ATS). […] Each shrew was monitored for 30 min post-injection and vomiting and scratching behaviors quantified. […]

[2] = test system: Least Shrew, NK1 receptor-intact or NK1 receptor-ablated; test: GR73632 emesis and scratching after SSP-saporin ablation of peripheral NK1 receptors
Description: To better localize the induction of emesis by GR73632, dose-response curves were generated for shrews pretreated either with the NK1 receptor immunotoxin SSP-saporin or saline and challenged four days later with varying doses of GR73632 (0, 1, 2.5, or 5 mg/kg, i.p., n=8-10 per group). Briefly, thirty shrews were injected i.p. with 1.2 mg/kg SSP-saporin in sterile saline, and thirty-five shrews were injected with sterile saline alone. In addition, two more shrews were injected with 1.2 mg/kg unconjugated saporin (saporin; ATS) and two more with 1.2 mg/kg of saporin conjugated to a nonspecific peptide sequence (Blank-saporin; ATS). Shrews were returned to the animal facility for three days and supplied with unrestricted food and water. Saporin-injected and Blank-saporin-injected shrews were perfused four days post-injection, and brain and gut harvested as described for immunohistochemical staining. The SSP-saporin and saline-injected shrews were divided into different groups on day 4 post-injection, and each group was injected i.p. with varying doses varying doses of 0, 1, 2.5, or 5 mg/kg GR73632 dissolved in saline. Each shrew was monitored for 30 min post-injection and vomiting and scratching behaviors quantified. Three shrews from each group were then perfused 90 min to 120 min post-injection as described previously for Fos immunohistochemistry, and brain and gut harvested. Immunohisto-chemistry (IHC) was performed for SP, NK1 receptor, and Fos as described, to qualitatively examine the extent of immunotoxic lesion in the brain and/or enteric nervous system. IHC for SP and NK1 receptor was done on the saporin- and Blank-saporin-injected shrews to verify the specificity of SSP-saporin and lack of toxicity of unconjugated saporin.
as §1

Fos = test: Fos-IR in brain and enteric nervous system after GR73632; details: GR73632 2.5 mg/kg i.p.
Description: Shrews were given four mealworms each and GR73632 (2.5 mg/kg, i.p., or vehicle (saline)) injection. For emesis-related Fos visualization, a shrew was transcardially perfused 60 min to 75 min after vomiting occurred, typically 20 min to 35 min post-injection.
After the appropriate time period as described above, shrews were anesthetized with a lethal dose of pentobarbital ([…]) and perfused transcardially via 25 ga blunted needle connected to a peristaltic pump. The shrew was perfused first with ice cold heparinized saline (0.9% NaC1, 60 sec-90 sec), followed by ice cold 4% paraformaldehyde/5% picric acid in pH7.4, 0.1 M (10 min). Brains were removed and stored in 30% sucrose in 0.1 M phosphate buffer (PB) overnight, then embedded in blocks of 12% gelatin in 30% sucrose/PB. The blocks were postfixed for 3 hr in 2% paraformaldehyde/PB, then rinsed and immersed in 30% sucrose/PB until they sank (usually 1 hr to 2 hr). The brain block was cut on a freezing benchtop microtome (Leica) at 30 μm into five series, and stored in PB with 0.03% sodium azide.
as §2
After reacting, the tissue was rinsed thoroughly in PB and mounted onto gel-subbed slides out of PB. After air-drying, slides were dehydrated through a series of ascending ethanols (50%-75%-90%-100%), then cleared in xylene (Fisher). Cleared slides were coverslipped with DEPEX (Electron Microscopy Sciences).
Photomicrographs of regions of interest were taken at 1600×1200 pixel digital resolution with a SPOT digital camera (Diagnostic Instruments) attached to a Pentium 4 PC running version 4.0 of the SPOT software. The camera was mounted to a Nikon Eclipse E600 microscope. A calibrated scale bar was added and the photos exported to Adobe Photoshop 7, where the Photoshop brush tool was used to mark Fos+nuclei as they were counted. Relevant structures were identified using an atlas produced in lab (Ray & Darmani, 2007). Cell counts for each structure were averaged on a per-section basis and collated in a spreadsheet for statistical analysis.
The data on the frequency of emesis and scratchings were analyzed by the Kruskal-Wallis (KW) nonparametric one-way analysis of variance (ANOVA) and post hoc analysis by Dunn's multiple comparisons test or Mann-Whitney test. A P value of <0.05 was necessary to attain statistical significance. The incidence of emesis (number of shrews vomiting) was analyzed by the Fisher's exact test to determine whether there were differences between groups. When appropriate, pairwise comparisons were also made by this method. […]

With “SP: tachykinin undecapeptide, nonselective NK1 receptor agonist, purchased from Sigma/RBI” the “time for brain stem SP-tissue level to attain maximal levels” value [1] was 15 min, the “decrease of basal frontal cortex SP concentration” value (“decrease” below) ([1]; 5 min) was 34% and the “increase of basal SP blood serum level” value ([1]; 5 min post-injection) was 3488 fold. For the same substance, the “increase of brain stem SP over basal level” value ([1]; 5 min post-injection) was 156%, the “decrease” value ([1]; 15 min) was 68% and the “increase of brain stem SP over basal level” value ([1]; 15 min post-injection) was 287%. For the same substance, the “brain stem SP level” value ([1]; 30 min) was “returned to basal tissue level”, the “decrease” value ([1]; 30 min) was 89% and the “SP blood serum level” value ([1]; by 10 min) was “rapidly declined”. The “duodenal SP tissue level increase over basal levels” value ([1]; within 5 min) was 1883%, the “jejunal SP tissue level increase over basal level” value ([1]; within 5 min) was 2133% and the emetic activity (Least Shrew; 10 mg/kg i.p.) was “inactive”. For the same substance, the emetic activity (Least Shrew; 25 mg/kg i.p.) was “inactive”, the “percentage of shrews vomiting” value (Least Shrew; 50 mg/kg i.p.) was 82% and the “increase in the frequency of vomiting vs vehicle control” value (Least Shrew; 50 mg/kg i.p.) was 382%. The “percentage of shrews vomiting” value (Least Shrew; 100 mg/kg i.p.) was 78%, the “increase in the frequency of vomiting vs vehicle control” value (Least Shrew; 100 mg/kg i.p.) was 322% and the “other overt behavioral effect (e.g. scratching)” value (Least Shrew; at the doses tested, 10-100 mg/kg i.p.) was “no other overt behavioral effect”. For the same substance, the “onset of first emesis after injection” value (Least Shrew) was 1 to 2 min.
With “[Sar^9, Met (O2)“]-SP-saporin [SSP-saporin]” the “NK1 receptor-IR in the gut vs saline-treated controls” value (NK1 receptor; 1.2 mg/kg i.p., four days) was “clear loss” and the “blood brain barrier penetration” value (NK1 receptor; peripherally administered, 1.2 mg/kg i.p.) was “does not penetrate the blood brain barrier”.
In the case of “delta Ava [L-Pro^9, N-MeLeu^10]SP (7-11) [GR73632]”, the “percentage of shrews vomiting” value ([2]; GR73632 1 mg/kg, NK1 receptor-intact (saline-pretreated) shrews) is reported as 44%, the number of vomits ([2]; GR73632 1 mg/kg, normal shrews) is reported as “about two vomits” and the “percentage of shrews vomiting” value ([2]; GR73632 1 mg/kg, saporin-pretreated NK1 receptor-ablated shrews) is reported as 0%. The “percentage of shrews vomiting” value ([2]; GR73632 2.5 mg/kg, NK1 receptor-ablated shrews) was 28%, the “percentage of shrews vomiting” value ([2]; GR73632 2.5 mg/kg, NK1 receptor-intact shrews) was 62.5% and the “bouts of vomiting, ablated vs intact shrews” value ([2]; GR73632 5 mg/kg, NK1 ablated shrews) was “significantly less bouts of vomiting”. The “percentage of shrews vomiting” value ([2]; GR73632 5 mg/kg, NK1 receptor-ablated shrews) was 100%, the “percentage of shrews vomiting” value ([2]; GR73632 5 mg/kg, NK1 receptor-intact shrews) was 100% and the number of scratches ([2]; GR73632 1, 2.5, 5 mg/kg, NK1 receptor-ablated shrews) was “increased in a significant manner at all tested doses”. For the same substance, the “duration of expulsion of food/liquid” value ([2]; NK1 receptor-ablated shrews) was 15 to 30 s, the “duration of emesis (each vomit expulsion)” value ([2]; NK1 receptor-intact animals) was 2 to 4 s and the “Fos-IR in gastrointestinal enteric nervous system vs saline” value (Fos) was “significant differences”. The “shrews in which vomiting was induced” value (Fos; N=6) was “five of six”, the “Fos-IR nuclei per coronal hemisection, AP” value (Fos; mean ± standard error) was 2.4 ± 1.2 and the “Fos-IR nuclei per coronal hemisection, DMNX” value (Fos; mean ± standard error) was 3.3 ± 1.0. The “Fos-IR nuclei per coronal hemisection, NTS” value (Fos; mean ± standard error) was 8.2 ± 1.1, the “Fos-IR nuclei per coronal hemisection, PFC” value (Fos; mean ± standard error) was 58.4 ± 14.2 and the “frequency of scratching behavior vs vehicle” value (Least Shrew; 2.5 mg/kg i.p.) was “Significant enhancements”. The “percentage of shrews vomiting” value (Least Shrew; 2.5 mg/kg i.p.) was 87.5%, the “increase in emesis frequency vs vehicle control” value (Least Shrew; 2.5 mg/kg i.p.) was 438% and the “frequency of scratching behavior vs vehicle” value (Least Shrew; 5 mg/kg i.p.) was “Significant enhancements”. The “percentage of shrews vomiting” value (Least Shrew; 5 mg/kg i.p.) was 100%, the “increase in emesis frequency vs vehicle control” value (Least Shrew; 5 mg/kg i.p.) was 575% and the “onset of first emesis after injection” value (Least Shrew) was 3 to 4 min.
In the case of saporin, the “NK1 receptor-IR and SP-IR vs control shrews” value (NK1 receptor; 1.2 mg/kg, four days post-injection) is reported as “not different”.

Source: patent US20110093959A1, “CRYPTOTIS PARVA SCREENING MODEL FOR ANTIEMETIC POTENTIAL” (priority 2008, published 2011)
